Test results as given in patent US20230405001A1, “TREATMENT OR PREVENTION OF HIV INFECTION” (Janssen Sciences Ireland Unlimited Company, priority 2020, published 2023).

Assays:
[1] = Plasma kinetics in minipigs over 6 months after single subcutaneous dosing, sequential, admixed or control (Example 2); format: in vivo; details: minipig, sc, 1830 mg; for AUC(0-t): single s.c. about 1800 mg/6 mL
Protocol: Nine minipigs with body weights ranging from 17 to 21 kg at the start of the study were used. The minipigs were fasted overnight before dosing. The minipigs were anaesthetized with propofol before dosing. Three minipigs were dosed subcutaneously in the loin with 0.44 mL of the hyaluronidase solution (10,000 U/mL) followed by 1818 mg/6.06 mL of the rilpivirine nanosuspension at the same injection site (treatment group A—sequential).
Three minipigs were dosed subcutaneously in the loin with the 1816 mg/6.5 mL admixed hyaluronidase solution (10,000 U/mL)+rilpivirine suspension (treatment group B— admixed). Three minipigs were dosed subcutaneously in the loin with the 1830 mg/6.1 mL of the control rilpivirine suspension (treatment group C—control). Vetbond 3M surgical sealant was used to seal the injection site to limit any leakage if necessary.
The control rilpivirine suspension was prepared and administered by the following method. • 1. Mix rilpivirine by horizontally shaking the container 30 times over approximately 25 cm within approximately 10 s (a back and forth arm movement=2 times). Ensure well mixed/fully re-suspended. • 2. Flip-off rilpivirine vial flip cap and wipe with isopropyl alcohol wipe. Allow to dry. • 3. Repeat steps 1-2 with a 2nd vial of rilpivirine. If there is a low draw, or unexpected amount of air/settling after draw, a 3rd vial may need to be prepared to ensure the proper dose level can be filled into the syringe. • 4. Attach 18 G transfer needle to 10 mL syringe. • 5. Invert vial and draw>3.2 mL into 10 mL syringe (or as much as can be removed from vial). Injecting 1-2 mL of air will facilitate draw. • Repeat step 5 with the 2nd vial so that at approximately 6.5 mL of drug product is in the 10 mL syringe. Important: see note in (step 3) about preparing a 3rd vial in case of low volume draw. • 6. Detach needle and attach a syringe cap to 10 mL syringe • 7. Wait 5 minutes for bubbles to settle with syringe inverted. • 8. Remove syringe cap, invert syringe prime off air. • 9. Attach a winged infusion set. • 10. Set dose at 6.1 mL after filling infusion set line until liquid forms at tip of needle (0.44 mL undeliverable/dead volume will be in infusion set). • 11. Insert the winged infusion set into the subcutaneous tissue of the target injection site by pinching the skin and inserting the needle at a 30-45 degree angle. • 12. Release the pinch. • 13. Inject over 2 minutes at a constant rate until the syringe plunger bottoms out • 14. Remove the winged infusion set and dispose. • 15. Record any site leakage.
The sequential administration of hyaluronidase solution and then rilpivirine suspension was performed according to the following method. • 1. Flip-off rHuPH20 solution vial flip cap and wipe with isopropyl alcohol wipe. Swirl vial. Allow vial stopper to dry. […]

[2] = Plasma kinetics in minipigs after single subcutaneous dosing, rilpivirine suspension with or without rHuPH20 (Example 1); format: in vivo; details: minipig
Protocol: Six minipigs with body weights ranging from 20 to 25 kg at the start of the study were used. The minipigs were fasted overnight before dosing. Three minipigs were dosed subcutaneously in the loin with 0.19 mL of the hyaluronidase solution (10,000 U/mL) followed by 900 mg/3 mL of the rilpivirine nanosuspension at the same injection site (treatment group A). Three minipigs were dosed subcutaneously in the loin with the 900 mg/3 mL of the control rilpivirine suspension (treatment group B—control). The injection volume was 3 mL rilpivirine suspension in both treatment groups. Method—Sequential Administration • 1. Flip-off rHuPH20 solution vial flip cap and wipe with isopropyl alcohol wipe. Allow to dry. Attach an 18 G transfer needle to a 1 mL syringe. • 2. Draw 0.35 mL into the syringe. • 3. Prime the syringe and set liquid level to 0.25 mL in the syringe. • 4. Remove transfer needle and attach syringe cap to 1 mL syringe. • 5. Mix rilpivirine by horizontally shaking the container 30 times over […] approximately 10 s (a back and forth arm movement=2 times). Ensure well mixed/fully re-suspended. • 6. Flip-off rilpivirine vial flip cap and wipe with isopropyl alcohol wipe. Allow to dry. • 7. Attach 18 G transfer needle to 5 mL syringe. • 8. Invert vial and draw>3.2 mL into 5 mL syringe mL (or as much as can be removed from vial). Injecting 1-2 mL of air will facilitate draw. • 9. Detach needle and attach a syringe cap to 5 mL syringe • 10. Invert syringe. Wait 5 minutes for bubbles to settle. • 11. Attach a winged infusion set to the rHuPH20 1 mL syringe. Invert syringe and prime off air so that liquid forms at the tip of the needle. (0.19 mL of rHuPH20 should be in the line) • 12. Insert the winged infusion set into the subcutaneous tissue of the target injection site by pinching the skin and inserting the needle at a 30-45 degree angle. • 13. Release the pinch. • 14. UNSCREW rHuPH20 syringe from infusion set maintaining the needle in the skin. […] It is advisable to have this syringe prepared while the technician is inserting the rHuPH20 infusion line. • 15. Remove the syringe cap from the 5 mL syringe with rilpivirine. Remove air and set the dose at 3.2 mL. • 16. Attach rilpivirine filled syringe to the open end of the infusion set. • 17. […] Plasma samples were analysed individually by means of a validated LC-MS/MS method. Pharmacokinetic Data Analysis • The pharmacokinetic profile of the blood plasma samples was evaluated using non-compartmental pharmacokinetic analysis (using individual Cp vs time profiles). Mean plasma concentrations and PK parameters (Cmax, Tmax, t1/2 and AUC values) were measured and the results are provided in Table 1.

Structure (SMILES): Cc1cc(/C=C/C#N)cc(C)c1Nc1ccnc(Nc2ccc(C#N)cc2)n1 [Rilpivirine, 4-[[4-[[4-[(1E)-2-cyanoethenyl]-2,6-dimethylphenyl]amino]-2-pyrimidinyl]amino]benzonitrile]
- Cmax ([1]; control group C, single animal, at 7 hours post-administration, read-out: Cmax of the excluded outlier minipig): 563 ng/mL
- Cmax ([1]; single s.c. about 1800 mg/6 mL rilpivirine nanosuspension, N=3, control value excludes an outlier minipig, read-out: Mean Cmax): 49 ng/mL
- AUC(0-t) ([1]; N=3, read-out: Mean AUC0-1 months): 22000 ng·h/mL
- AUC(0-t) ([1]; N=3, read-out: Mean AUC0-6 months): 78300 ng·h/mL
- λz ([2]; single s.c. 900 mg/3 mL, N=3): 0.0009 ± 0.00009 h⁻¹
- Tlast ([2]; single s.c. 900 mg/3 mL, median, N=3): 2160 h
- AUC(0-t) ([2]; plasma, sc, single s.c. 900 mg/3 mL, N=3): 22300 ± 2930 ng·h/mL
- Cmax ([2]; plasma, sc, single s.c. dose in the loin, 900 mg/3 mL rilpivirine suspension, N=3, mean ± SD): 28.5 ± 9.56 ng/mL
